# Laboratory results published in patent US20110098284A1, “Methods and compositions for treating pain” (priority 2005, published 2011).
# Like-named read-outs stand apart in the source and are kept apart here.
# Legend:
# [1] = cited from earlier work; for incidence of injection site pain: diclofenac 75 mg or ketorolac 30 mg IM (Morrow)
# [2] = CABG study, cited from earlier work
# [3] = vs. 0% placebo; P=0.03; cited from earlier work
# [4] = cited from earlier work
# [5] = test system: marginal vein of each ear; conditions: for edema at injection site / erythema at injection site: 24 hour observation
# [6] = stored for 12 weeks at 5° C., 25° C./60% RH, 30° C./60% RH, 40° C./75% RH; for original NSAID content on storage: stability indicating HPLC; for visible signs of crystallization, deviation in pH and osmolarity on storage: vials or ampoules sealed under nitrogen
# [7] = test system: marginal vein of each ear; test: Histopathological evaluation of injection sites (Example 11); assay type: in vivo, New Zealand White rabbits
# Procedure: Injection sites underwent histopathological evaluation.
# Thrombosis was recorded for amorphous aggregates of fibrin like material within vascular lumens and variably adherent to vessel walls.
# [8] = 1 mg/kg over 10 min as solution of 25 mg/mL (Campbell and Watters)
# [9] = IV using a diluted infusion (Campbell and Watters)
# [10] = Treatment A, 5 mg/0.1 mL IV over one minute
# [11] = Treatment B, 15 mg/0.3 mL IV over one minute
smiles,measurement,setting,value
O=C(c1ccccc1)c1ccc2n1CCC2C(=O)O (stereo not drawn) [ketorolac],incidence of injection site pain,[1],3%
CCC(=O)NS(=O)(=O)c1ccc(-c2c(-c3ccccc3)noc2C)cc1 [parecoxib],deaths,[2]; vs. 0 placebo,4
same,cerebrovascular events,[2]; vs. 0.7% placebo,2.6%
same,incidence of myocardial infarctions,[2]; vs. 0.7% placebo,1.9%
same,sternal wound infections,[3],3.2%
"O=C(O)Cc1ccccc1Nc1c(Cl)cccc1Cl [diclofenac, 2-(2,6-dichlorophenylamino)benzeneacetic acid]",cases of severe local reactions,[1]; IM (Pillans and O'Connor),six
same,patients who died,[1]; IM (Pillans and O'Connor),Two of the six
same,patients with extensive tissue necrosis at the IM injection site,[1]; IM (Pillans and O'Connor),Three
same,patients with necrotizing fasciitis,[1]; IM (Pillans and O'Connor),three
same,share of all accepted claims for injection related complications,"[1]; IM administration, New Zealand 1992 to 2003",22.6%
same,incidence of injection site pain,[1],31%
same,patients who developed phlebitis,"[4]; 1 mg/kg in 100 mL saline every 12 hours x 2 doses, maxillofacial surgery (Tarkkila)",10%
same,"incidence of phlebitis, arm",[4]; [8],58%
same,"incidence of phlebitis, hand",[4]; [8],85%
same,"incidence of thrombosis, arm veins",[4]; [9],8%
same,"incidence of thrombosis, hand veins",[4]; [9],38%
same,patients who developed phlebitis,"[4]; after hip replacement surgery, diclofenac 75 mg IV over 30 minutes then 75 mg/15.5 hours, ketoprofen 100 mg over 30 min then 100 mg/15.5 hours (Kostamovaara)",14%
same,patients who experienced phlebitis,"[4]; after major orthopedic surgery, 0.35 mg/kg IV then 0.90 mcg/min continuous infusion, 6 hours after start (Claeys)",5%
same,time of (delayed) venous thrombosis,"[4]; diluted in 100 to 200 mL, infused over 15 to 20 minutes (Gopinath)",> 72 h
"CC(C(=O)O)c1cccc(C(=O)c2ccccc2)c1 (racemic) [Ketoprofen, (±)-2-(3-benzoylphenyl)propionic acid]",irritation in the ear veins,"[5]; Treatment A, 5 mg/0.1 mL IV",produced irritation
same,edema at injection site,[5]; [10],slight
same,erythema at injection site,[5]; [10],well defined
same,irritation in the ear veins,"[5]; Treatment B, 15 mg/0.3 mL IV",produced irritation
same,edema at injection site,[5]; [11],very slight
same,erythema at injection site,[5]; [11],very slight to moderate to severe
CN1C(C(=O)Nc2ccccn2)=C(O)c2ccccc2S1(=O)=O.NCCN [piroxicam-ethylenediamine],original NSAID content on storage,[6],100%±5%
same,"visible signs of crystallization, deviation in pH and osmolarity on storage",[6],no visible signs of crystallization or significant deviation in pH and osmolarity
same,incidence of inflammatory cell infiltrates,"[7]; rabbit, in vivo",low
same,mean intensity (severity) of edema and infiltrates,"[7]; rabbit, in vivo",none to negligible
"CN1C(C(=O)Nc2ccccn2)=C(O)c2ccccc2S1(=O)=O [unsalified piroxicam, 4-hydroxy-2-methyl-N-2-pyridinyl-2H-1,2-benzothiazine-3-carboxamide-1,1-dioxide]",incidence of inflammatory cell infiltrates,[7]; at the end of needle progression and 1 cm away from the end of progression,intermediate
same,mean intensity (severity) of edema and infiltrates,[7]; injection site histopathology,intermediate
CN1C(C(=O)Nc2ccccn2)=C(O)c2sccc2S1(=O)=O.CN1C(C(=O)Nc2ccccn2)=C(O)c2sccc2S1(=O)=O.NCCN [tenoxicam ethylenediamine],original NSAID content on storage,[6],100%±5%
same,"visible signs of crystallization, deviation in pH and osmolarity on storage",[6],no visible signs of crystallization or significant deviation in pH and osmolarity
